≈ marks a conversion by molar mass, not a printed value.

A short description of series [1]: Bioavailability / pharmacokinetics after oral gavage in rats. The class given is in vivo. The note with it: Sprague-Dawley, 80 mg/kg, HES in rat plasma, equivalent to 80 mg HES/kg. Here is the method:
Eighteen Sprague–Dawley rats weighing 220–250 g were randomly divided into three groups (n = 6), fasted for 12 h but freely given water before the experiment. The HES, the physical mixture of HES and PIP, and the HES–PIP cocrystal were delivered by gavage at a dose equivalent to 80 mg of the HES/kg body weight of the animal as a suspension in water. Next, 500 µL blood was withdrawn and placed in a centrifuge tube with heparin from the eye sockets of rats at 0.25 h, 0.5 h, 1 h, 2 h, 4 h, 6 h, 8 h, 12 h, 24 h, and 48 h after oral administration. The plasma was separated by centrifugation (4000 rpm, 15 min) and saved at −80 °C until analysis. Next, 100 µL of plasma sample was added into 400 μL of methanol and vortexed for 5 min to fully precipitate the protein [44], then centrifuged at 10,000 rpm for 10 min. The supernatant was then transferred to another tube and evaporated to remove the solvent under a stream of nitrogen. The residual solid was then dissolved in methanol with vortex oscillation for 3 min, and the mixture was centrifuged at 10,000 rpm for 10 min. Finally, the supernatant was analyzed via HPLC method for HES content. PK parameters were obtained on the basis of a model-independent method using DAS 2 program.

Series [2] in a line: Solubility experiment in simulated gastrointestinal fluid. It counts as physicochemical. The note with it: thermodynamic from solid, 100 rpm. Here is the method:
The solubility of the HES–PIP cocrystal in simulated gastrointestinal fluid was measured in the present study following the method described in the literature but slightly modified. The samples were previously milled and sieved (75–150 μm) before examination to reduce the effect of the crystal’s size on its solubility behavior. A specific amount (containing 25 mg of HES) of the HES–PIP cocrystal was weighed and added into a centrifuge tube containing 5 mL dissolving medium, and the suspension was incubated at 37 ± 0.2 °C rotating at 100 rpm. Taking a tube at 0.25 h, 0.5 h, 1 h, 2 h, 4 h, 6 h, 8 h, 12 h, 24 h, and 48 h, the samples were centrifuged at 12,000 rpm for 5 min, and the supernatant was diluted with methanol and analyzed by HPLC. The cocrystal’s solubility at different times was compared with that of raw HES. […] The residual solid in each tube was also analyzed by PXRD.
The cocrystal’s supersaturation factor (SF) was calculated through the drug supersaturation–time curve following the method presented in a previous study, and the calculation formula is as follows:(1) SF=AUC0.25−48 h(Cocrystal)/AUC0.25−48 h(Hesperetin) where SF is the supersaturation factor, AUC0.25–48 h (Cocrystal) is the area under the curve of the cocrystal supersaturation–time profile, and AUC0.25–48 h (Hesperetin) is the area under the curve for a saturated solution.

`COc1ccc([C@@H]2CC(=O)c3c(O)cc(O)cc3O2)cc1O` [HES, ((S)-2,3-dihydro-5,7-dihydroxy-2-(3-hydroxy-4 methoxy-phenyl)-4H-1-benzopyran-4-one)]: in series [1] (n = 6), the AUC(0-t) was 530 ng·h/mL, the Tmax came to 30 min and the half-life was 181 min. The MRT last in series [1] (n = 6, read-out: MRT(0–t)) was found to be 5.86 h. Further, in series [1] (suspension in water, n = 6), the Cmax was 120 ng/mL. In addition, in series [2] (fassgf or other biorelevant, simulated gastrointestinal fluid pH 6.8, 37 °C, HES–PIP maximum at 6 h), the solubility was 21.1 µg/mL (≈ 69.9 µM). The same compound had a solubility in series [2] (simulated gastric fluid, simulated gastrointestinal fluid pH 1.2, 37 °C, HES–PIP maximum at 8 h) of 23.1 µg/mL (≈ 76.5 µM).

The AUC(0-t) is exposure summed from dosing to a finite time, without extrapolation to infinity. As a reminder, the Tmax is the time from dosing to the highest level. As a reminder, the half-life is the time in which the quantity being followed falls by half. A word on the Cmax: it is the maximum level reached in the sampled fluid or tissue. The solubility is the dissolved amount per volume that the medium holds.

Values taken from article PMC8778681, “Crystal Structure, Solubility, and Pharmacokinetic Study on a Hesperetin Cocrystal with Piperine as Coformer” (Pharmaceutics, 2022).
